Drawing on ChEMBL document CHEMBL5465560, “Selectivity Literature for EUbOPEN Chemogenomic Library” (2024), this text covers % of control and IC50 for seven molecules.

Structures are written as SMILES.

For experiment [1], the target named is T1, Megakaryocyte-associated tyrosine-protein kinase (Homo sapiens) (UniProt P42679).
T1 sequence (whole entry): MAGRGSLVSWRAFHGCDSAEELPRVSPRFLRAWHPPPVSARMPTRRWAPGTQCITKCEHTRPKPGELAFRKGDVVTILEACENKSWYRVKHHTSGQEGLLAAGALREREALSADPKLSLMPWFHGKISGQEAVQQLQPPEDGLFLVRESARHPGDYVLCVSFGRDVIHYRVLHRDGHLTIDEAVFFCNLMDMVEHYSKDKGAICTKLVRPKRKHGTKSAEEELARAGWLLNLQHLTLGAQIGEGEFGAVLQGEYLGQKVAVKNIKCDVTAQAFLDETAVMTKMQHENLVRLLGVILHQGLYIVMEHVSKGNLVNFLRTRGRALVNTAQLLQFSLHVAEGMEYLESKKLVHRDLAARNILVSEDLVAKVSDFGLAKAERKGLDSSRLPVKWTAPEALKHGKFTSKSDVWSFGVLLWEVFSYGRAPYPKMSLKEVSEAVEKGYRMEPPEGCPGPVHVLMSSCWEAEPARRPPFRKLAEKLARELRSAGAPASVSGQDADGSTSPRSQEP
Kind of experiment: Selectivity interaction (Ambit KINOMEscan and KiNATiv profiling in Jurkat cells) EUB0000090b MATK. Type of experiment: cell-based. The settings on record: at 1 µM.

Experiment [2] addresses T2, Tyrosine-protein kinase TXK (Homo sapiens) (UniProt P42681).
T2 sequence (whole entry): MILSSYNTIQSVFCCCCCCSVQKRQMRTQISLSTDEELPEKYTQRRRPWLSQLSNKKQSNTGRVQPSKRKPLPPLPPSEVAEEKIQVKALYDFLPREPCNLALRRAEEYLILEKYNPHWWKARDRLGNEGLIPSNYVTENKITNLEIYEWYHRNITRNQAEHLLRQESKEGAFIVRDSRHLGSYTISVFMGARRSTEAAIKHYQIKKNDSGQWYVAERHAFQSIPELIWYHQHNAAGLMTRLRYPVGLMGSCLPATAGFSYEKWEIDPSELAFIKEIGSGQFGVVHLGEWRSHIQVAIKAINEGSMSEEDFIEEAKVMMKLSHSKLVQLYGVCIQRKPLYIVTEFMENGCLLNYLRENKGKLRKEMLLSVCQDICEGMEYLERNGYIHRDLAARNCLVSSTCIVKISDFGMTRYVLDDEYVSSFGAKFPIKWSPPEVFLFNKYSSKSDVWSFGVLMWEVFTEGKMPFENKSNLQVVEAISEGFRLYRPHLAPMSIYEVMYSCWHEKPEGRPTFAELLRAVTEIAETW
Kind of experiment: Selectivity interaction (Ambit KINOMEscan and KiNATiv profiling in Jurkat cells) EUB0000090b TXK. Type of experiment: cell-based. The settings on record: at 1 µM.

In experiment [3] the target is T3, Serine/threonine-protein kinase Sgk3 (Homo sapiens) (UniProt Q96BR1).
T3 sequence (whole entry): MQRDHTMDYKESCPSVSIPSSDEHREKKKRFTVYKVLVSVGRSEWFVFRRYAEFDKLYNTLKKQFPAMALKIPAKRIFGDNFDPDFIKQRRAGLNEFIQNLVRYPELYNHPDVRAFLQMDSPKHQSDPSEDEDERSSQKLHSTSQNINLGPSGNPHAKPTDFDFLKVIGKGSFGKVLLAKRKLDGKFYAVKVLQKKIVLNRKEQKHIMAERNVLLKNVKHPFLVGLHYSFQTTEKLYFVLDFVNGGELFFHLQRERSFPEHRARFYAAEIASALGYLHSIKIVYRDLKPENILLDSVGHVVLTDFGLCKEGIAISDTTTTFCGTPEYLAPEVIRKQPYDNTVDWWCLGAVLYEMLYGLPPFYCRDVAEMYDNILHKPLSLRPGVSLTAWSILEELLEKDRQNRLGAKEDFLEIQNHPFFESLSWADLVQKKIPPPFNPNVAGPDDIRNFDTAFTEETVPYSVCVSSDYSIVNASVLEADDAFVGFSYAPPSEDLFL
Kind of experiment: Selectivity interaction (KinomeScan (DiscoverX)) EUB0000092b SGK3. The settings on record: at 10 µM.

For experiment [4], the target named is T4, Dual specificity mitogen-activated protein kinase kinase 3 (Homo sapiens) (UniProt P46734).
T4 sequence (whole entry): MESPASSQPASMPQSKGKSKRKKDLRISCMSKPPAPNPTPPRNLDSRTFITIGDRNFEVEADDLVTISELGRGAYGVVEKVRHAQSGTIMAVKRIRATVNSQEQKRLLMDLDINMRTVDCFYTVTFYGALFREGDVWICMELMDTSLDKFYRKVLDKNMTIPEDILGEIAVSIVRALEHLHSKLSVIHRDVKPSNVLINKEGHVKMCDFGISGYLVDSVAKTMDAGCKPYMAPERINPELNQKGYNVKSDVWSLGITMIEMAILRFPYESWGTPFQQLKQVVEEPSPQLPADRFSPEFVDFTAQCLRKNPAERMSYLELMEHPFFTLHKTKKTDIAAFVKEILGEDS
Kind of experiment: Selectivity interaction (KinomeScan (DiscoverX)) EUB0000092b MAP2K3. The settings on record: at 10 µM.

For experiment [5], the target named is T5, Activin receptor type-1 (Homo sapiens) (UniProt Q04771).
T5 sequence (whole entry): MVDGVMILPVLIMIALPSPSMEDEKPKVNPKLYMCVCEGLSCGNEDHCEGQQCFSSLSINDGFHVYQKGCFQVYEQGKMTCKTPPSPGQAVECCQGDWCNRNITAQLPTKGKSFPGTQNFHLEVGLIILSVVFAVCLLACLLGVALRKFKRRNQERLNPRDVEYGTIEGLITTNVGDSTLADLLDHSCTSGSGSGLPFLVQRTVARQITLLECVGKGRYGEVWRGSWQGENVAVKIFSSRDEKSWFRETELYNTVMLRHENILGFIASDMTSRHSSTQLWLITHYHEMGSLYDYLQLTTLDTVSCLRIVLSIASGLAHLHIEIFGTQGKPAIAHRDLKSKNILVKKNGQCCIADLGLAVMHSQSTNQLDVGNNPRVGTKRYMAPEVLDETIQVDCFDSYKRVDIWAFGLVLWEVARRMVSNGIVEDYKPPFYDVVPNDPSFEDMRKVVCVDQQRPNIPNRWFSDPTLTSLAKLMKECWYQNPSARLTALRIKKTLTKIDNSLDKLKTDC
Kind of experiment: Selectivity interaction (KinomeScan (DiscoverX)) EUB0000045b ACVR1.

In experiment [6] the target is Tyrosine-protein kinase Yes (Homo sapiens) (UniProt P07947). Kind of experiment: Selectivity interaction (Kinase panel (Z-LYTE Assay)) EUB0001632a YES1. The settings on record: at 10 µM.
Chain of Tyrosine-protein kinase Yes (Homo sapiens) (P07947 2-543 limits assumed): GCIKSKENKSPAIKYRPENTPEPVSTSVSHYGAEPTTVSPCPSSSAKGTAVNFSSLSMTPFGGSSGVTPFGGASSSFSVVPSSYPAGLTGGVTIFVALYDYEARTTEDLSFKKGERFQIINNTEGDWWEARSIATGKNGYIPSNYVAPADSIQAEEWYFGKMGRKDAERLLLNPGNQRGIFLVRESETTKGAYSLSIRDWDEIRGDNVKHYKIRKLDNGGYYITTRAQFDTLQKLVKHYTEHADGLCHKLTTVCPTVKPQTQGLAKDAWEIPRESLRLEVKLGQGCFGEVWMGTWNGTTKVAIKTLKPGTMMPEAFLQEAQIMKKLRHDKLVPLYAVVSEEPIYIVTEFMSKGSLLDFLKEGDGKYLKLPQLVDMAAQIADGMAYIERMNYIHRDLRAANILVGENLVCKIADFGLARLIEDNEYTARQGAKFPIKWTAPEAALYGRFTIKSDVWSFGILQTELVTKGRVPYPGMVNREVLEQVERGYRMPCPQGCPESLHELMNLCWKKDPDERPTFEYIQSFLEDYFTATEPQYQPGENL
Experiment [7] addresses AP2-associated protein kinase 1 (Homo sapiens, UniProt Q2M2I8). Kind of experiment: Selectivity interaction (KinomeScan (DiscoverX)) EUB0000607a AAK1. The settings on record: at 10 µM.
Experiment [8] deals with Proto-oncogene tyrosine-protein kinase receptor Ret (Homo sapiens), P07949 [V804L]. Kind of experiment: (§1) Selectivity interaction (KinomeScan (DiscoverX)) EUB0000607a RET. The settings on record: at 10 µM.
Chain of Proto-oncogene tyrosine-protein kinase receptor Ret (Homo sapiens), P07949 [V804L] (P07949 whole entry V804L): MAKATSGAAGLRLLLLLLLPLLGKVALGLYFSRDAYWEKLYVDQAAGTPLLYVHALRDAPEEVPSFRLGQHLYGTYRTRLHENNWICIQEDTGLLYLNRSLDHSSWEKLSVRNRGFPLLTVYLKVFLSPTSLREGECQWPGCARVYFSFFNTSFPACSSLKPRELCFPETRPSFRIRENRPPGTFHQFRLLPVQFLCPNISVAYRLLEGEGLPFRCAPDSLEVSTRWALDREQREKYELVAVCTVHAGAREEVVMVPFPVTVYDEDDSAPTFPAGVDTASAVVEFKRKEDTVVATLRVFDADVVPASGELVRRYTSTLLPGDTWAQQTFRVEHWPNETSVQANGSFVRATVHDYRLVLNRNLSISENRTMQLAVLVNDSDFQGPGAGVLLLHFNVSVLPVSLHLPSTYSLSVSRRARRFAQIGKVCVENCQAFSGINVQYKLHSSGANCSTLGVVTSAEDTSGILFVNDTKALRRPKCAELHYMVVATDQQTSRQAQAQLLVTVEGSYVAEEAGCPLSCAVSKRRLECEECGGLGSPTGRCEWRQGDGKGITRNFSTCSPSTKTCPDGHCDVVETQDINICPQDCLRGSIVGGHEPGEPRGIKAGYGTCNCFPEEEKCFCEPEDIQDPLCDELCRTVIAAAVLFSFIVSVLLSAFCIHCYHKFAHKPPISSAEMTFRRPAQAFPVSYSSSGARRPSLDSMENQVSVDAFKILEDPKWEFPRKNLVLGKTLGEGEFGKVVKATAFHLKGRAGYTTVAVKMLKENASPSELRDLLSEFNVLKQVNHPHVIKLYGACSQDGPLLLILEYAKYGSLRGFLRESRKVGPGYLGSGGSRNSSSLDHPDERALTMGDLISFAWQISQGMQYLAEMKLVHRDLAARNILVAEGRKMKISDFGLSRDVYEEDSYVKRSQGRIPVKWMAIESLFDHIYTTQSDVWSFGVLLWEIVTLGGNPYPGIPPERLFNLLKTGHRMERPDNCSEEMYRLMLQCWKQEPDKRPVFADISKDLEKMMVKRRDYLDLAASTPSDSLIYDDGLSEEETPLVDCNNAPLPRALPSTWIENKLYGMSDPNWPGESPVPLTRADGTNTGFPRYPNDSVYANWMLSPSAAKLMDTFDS
Experiment [9] deals with Proto-oncogene tyrosine-protein kinase receptor Ret (Homo sapiens, UniProt P07949). The description is as §1. The settings on record: at 10 µM.
Chain of Proto-oncogene tyrosine-protein kinase receptor Ret (P07949 whole entry): as the sequence (P07949 whole entry V804L) above, with L804V counted along it
Experiment [10] addresses Epidermal growth factor receptor (Homo sapiens, UniProt P00533).
Experiment [11] has as its target Mitogen-activated protein kinase 14 (Homo sapiens, UniProt Q16539). Kind of experiment: Selectivity interaction (KinomeScan (DiscoverX)) EUB0001619a MAPK14. The settings on record: at 1 µM.

Chain of AP2-associated protein kinase 1 (Q2M2I8 whole entry, looked up): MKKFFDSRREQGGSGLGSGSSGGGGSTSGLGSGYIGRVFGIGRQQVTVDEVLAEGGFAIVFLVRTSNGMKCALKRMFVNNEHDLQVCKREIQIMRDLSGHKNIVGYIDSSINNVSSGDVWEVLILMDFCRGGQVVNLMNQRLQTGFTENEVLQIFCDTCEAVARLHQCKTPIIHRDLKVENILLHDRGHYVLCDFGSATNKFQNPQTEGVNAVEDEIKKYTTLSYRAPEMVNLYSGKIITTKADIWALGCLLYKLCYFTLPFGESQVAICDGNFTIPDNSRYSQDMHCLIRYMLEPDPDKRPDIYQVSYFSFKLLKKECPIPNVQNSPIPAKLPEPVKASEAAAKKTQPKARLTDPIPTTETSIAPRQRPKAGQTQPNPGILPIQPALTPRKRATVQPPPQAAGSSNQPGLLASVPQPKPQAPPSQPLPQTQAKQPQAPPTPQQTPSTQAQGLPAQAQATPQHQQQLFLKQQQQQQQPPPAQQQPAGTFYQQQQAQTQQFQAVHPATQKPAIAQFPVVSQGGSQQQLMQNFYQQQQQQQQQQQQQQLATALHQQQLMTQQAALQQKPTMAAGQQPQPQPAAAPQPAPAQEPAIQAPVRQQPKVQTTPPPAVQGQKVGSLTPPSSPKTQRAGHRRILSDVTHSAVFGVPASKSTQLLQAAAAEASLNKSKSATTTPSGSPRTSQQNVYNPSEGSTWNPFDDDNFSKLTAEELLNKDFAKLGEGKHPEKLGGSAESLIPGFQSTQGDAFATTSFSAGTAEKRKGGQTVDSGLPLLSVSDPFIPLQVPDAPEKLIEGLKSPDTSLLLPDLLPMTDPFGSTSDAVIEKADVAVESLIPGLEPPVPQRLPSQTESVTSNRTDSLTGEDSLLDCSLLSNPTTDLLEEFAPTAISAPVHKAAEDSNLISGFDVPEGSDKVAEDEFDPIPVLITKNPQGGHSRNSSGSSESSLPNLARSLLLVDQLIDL
Chain of Mitogen-activated protein kinase 14 (Q16539 whole entry): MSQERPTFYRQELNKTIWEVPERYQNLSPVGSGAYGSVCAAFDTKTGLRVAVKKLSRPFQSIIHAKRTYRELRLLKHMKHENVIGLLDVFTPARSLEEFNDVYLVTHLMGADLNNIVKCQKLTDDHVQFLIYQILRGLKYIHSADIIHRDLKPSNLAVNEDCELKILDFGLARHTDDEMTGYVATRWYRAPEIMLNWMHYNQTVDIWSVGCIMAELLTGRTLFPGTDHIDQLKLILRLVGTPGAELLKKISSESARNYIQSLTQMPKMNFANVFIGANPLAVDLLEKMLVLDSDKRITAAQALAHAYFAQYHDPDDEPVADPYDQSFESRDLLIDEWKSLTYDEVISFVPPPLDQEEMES
Chain of Epidermal growth factor receptor (P00533 whole entry): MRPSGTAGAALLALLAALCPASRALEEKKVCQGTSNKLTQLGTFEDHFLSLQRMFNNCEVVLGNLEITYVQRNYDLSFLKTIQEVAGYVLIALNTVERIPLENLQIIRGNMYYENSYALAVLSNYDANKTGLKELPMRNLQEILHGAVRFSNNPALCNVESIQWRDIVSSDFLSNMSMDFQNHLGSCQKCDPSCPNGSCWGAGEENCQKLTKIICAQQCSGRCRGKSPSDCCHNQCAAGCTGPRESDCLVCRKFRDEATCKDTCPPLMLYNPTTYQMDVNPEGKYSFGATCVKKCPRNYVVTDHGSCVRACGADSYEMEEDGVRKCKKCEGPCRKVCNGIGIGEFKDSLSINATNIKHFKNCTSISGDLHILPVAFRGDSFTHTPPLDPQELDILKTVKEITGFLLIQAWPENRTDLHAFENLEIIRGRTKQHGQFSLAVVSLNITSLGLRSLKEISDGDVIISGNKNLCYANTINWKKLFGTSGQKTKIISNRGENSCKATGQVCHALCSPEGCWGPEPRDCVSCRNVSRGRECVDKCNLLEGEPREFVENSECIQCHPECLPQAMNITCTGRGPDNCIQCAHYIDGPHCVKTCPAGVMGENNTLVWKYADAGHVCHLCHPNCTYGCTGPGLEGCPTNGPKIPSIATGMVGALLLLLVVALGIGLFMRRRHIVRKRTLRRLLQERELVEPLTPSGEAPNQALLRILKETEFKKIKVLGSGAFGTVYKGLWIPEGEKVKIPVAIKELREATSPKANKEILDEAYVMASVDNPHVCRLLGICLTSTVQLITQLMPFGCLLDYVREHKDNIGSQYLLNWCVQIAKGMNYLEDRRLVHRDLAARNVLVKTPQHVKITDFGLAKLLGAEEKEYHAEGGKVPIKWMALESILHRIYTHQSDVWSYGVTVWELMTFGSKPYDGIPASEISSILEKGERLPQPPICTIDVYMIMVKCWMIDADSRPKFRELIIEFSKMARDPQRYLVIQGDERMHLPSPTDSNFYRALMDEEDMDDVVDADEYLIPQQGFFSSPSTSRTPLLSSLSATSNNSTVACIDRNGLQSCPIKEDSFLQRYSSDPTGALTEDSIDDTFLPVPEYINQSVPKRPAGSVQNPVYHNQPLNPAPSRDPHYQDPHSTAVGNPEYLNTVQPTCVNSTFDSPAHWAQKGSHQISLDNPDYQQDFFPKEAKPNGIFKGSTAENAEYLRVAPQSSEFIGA

`CN(C)C/C=C/C(=O)Nc1ccc(C(=O)N2CCCC(Nc3ncc(Cl)c(-c4c[nH]c5ccccc45)n3)C2)cc1` (configuration not stated): the % of control in experiment [1] and in experiment [2] was 94% in each case. On to `CCC(=O)N1CCN(c2ccc(-n3c(=O)ccc4cnc5ccc(-c6cnc7ccccc7c6)cc5c43)cc2C(F)(F)F)CC1`, for which the % of control is 100% in experiment [3] and 80% in [4]. On to `C=CC(=O)Nc1cc(-n2c(=O)ccc3cnc4ccc(-c5ccc(NS(C)(=O)=O)cc5)cc4c32)ccc1C`, for which the % of control in experiment [5] (at 1 µM) turned out to be 100%; in [5] (at 10 µM) it was 59%.

For `Cn1cc(-n2cnc3c(NCc4nc5cc(Cl)c(Cl)cc5[nH]4)nc(N4CCOCC4)nc32)cn1`, the % of control in experiment [6] worked out at 0.787%. For the molecule `CNC(=O)Nc1ccc(-c2nc(N3CC4CCC(C3)O4)c3cnn(C4CCC5(CC4)OCCO5)c3n2)cc1`, the % of control was determined as 100% in experiment [7], 85% in experiment [8] and 91% in experiment [9]. Broadly, the IC50 is the concentration that gives 50% inhibition. A high value points to lower potency. As to `CCc1cccc(CC)c1NC(=O)c1nn(C)c2c1CCc1cnc(Nc3ccc(C(=O)NC4CCN(C)CC4)cc3OC(F)(F)F)nc1-2`, the concentration for half-maximal inhibition (IC50) in experiment [10] is greater than 10 µM. Take `N#Cc1cccc(-c2c[nH]c3ncnc(N4CCOCC4)c23)c1`: the % of control in [11] was determined as 100%.
